Molecules are shown by their SMILES.

What all share (type): functional
The test system of assay [1] is Diaphania hyalinata. Description: Insecticidal activity against second-instar larvae of Diaphania hyalinata assessed as mortality at compound administered topically at 1 ug/mg insect measured after 48 hr.
Assay [2] deals with Diaphania hyalinata. The experiment in a line: Insecticidal activity against second-instar larvae of Diaphania hyalinata assessed as mortality at compound administered topically at 1 ug/mg insect measured after 72 hr.
Assay [3] concerns Plutella xylostella. Description: Insecticidal activity against second-instar larvae of Plutella xylostella (diamondback moth) assessed as mortality at compound administered topically at 1 ug/mg insect measured after 48 hr.
Assay [4] has as its system Diaphania hyalinata. The experiment in a line: Insecticidal activity against second-instar larvae of Diaphania hyalinata assessed as mortality at compound administered topically at 1 ug/mg insect measured after 24 hr.
Assay [5] concerns Plutella xylostella. Description: Insecticidal activity against second-instar larvae of Plutella xylostella (diamondback moth) assessed as mortality at compound administered topically at 1 ug/mg insect measured after 72 hr.
For assay [6], the system named is Ascia monuste. The experiment in a line: Insecticidal activity against second-instar larvae of Ascia monuste assessed as mortality at compound administered topically at 1 ug/mg insect measured after 24 hr.
In assay [7] the test system is Plutella xylostella. The experiment in a line: Insecticidal activity against second-instar larvae of Plutella xylostella (diamondback moth) assessed as mortality at compound administered topically at 1 ug/mg insect measured after 24 hr.
For assay [8], the system named is Ascia monuste. The experiment in a line: Insecticidal activity against second-instar larvae of Ascia monuste assessed as mortality at compound administered topically at 1 ug/mg insect measured after 48 hr.
In assay [9] the test system is Ascia monuste. Description: Insecticidal activity against second-instar larvae of Ascia monuste assessed as mortality at compound administered topically at 1 ug/mg insect measured after 72 hr.

For `Cc1ccc(CC2=CCOC2=O)cc1`, the mortality is reported as 10% with Diaphania hyalinata [1]; 12.5% with Diaphania hyalinata [2]; 17.5% in the assay with Plutella xylostella [3]; 10% in the assay with Diaphania hyalinata [4]; 25% in the assay on Plutella xylostella [5]; 5% with Ascia monuste [6]. For the same compound, the mortality in the assay on Plutella xylostella [7] is 12.5%; in the assay on Ascia monuste [8] it was 12.5%; in the assay on Ascia monuste [9] it was 17.5%.

Regarding `CCN(CC)P(=O)(Oc1occc1Cc1ccc(C)cc1)N(CC)CC`, the mortality with Diaphania hyalinata [1] is 25%; in the assay on Diaphania hyalinata [2] it was 30%; with Plutella xylostella [3], 25%; in the assay with Diaphania hyalinata [4], 25%; in the assay with Plutella xylostella [5] it was 32.5%; with Ascia monuste [6] it was 5%. Besides, the mortality in the assay with Plutella xylostella [7] amounted to 20%; in the assay with Ascia monuste [8] it was 15%; in the assay on Ascia monuste [9] it was 17.5%.

For `CCN(CC)P(=O)(Oc1occc1Cc1cccc(C)c1)N(CC)CC`, the mortality with Diaphania hyalinata [1] worked out at 15%; with Diaphania hyalinata [2], 15%; with Plutella xylostella [3], 40%; with Diaphania hyalinata [4] it was 15%; in the assay with Plutella xylostella [5], 45%; in the assay on Ascia monuste [6], 7.5%. For the same compound, the mortality in the assay on Plutella xylostella [7] came out at 22.5%; in the assay on Ascia monuste [8] it was 12.5%; with Ascia monuste [9], 12.5%.

Consider `CCN(CC)P(=O)(Oc1occc1Cc1ccccc1)N(CC)CC`, for which the mortality in the assay with Diaphania hyalinata [1] turned out to be 5%; with Diaphania hyalinata [2] it was 5%; in the assay on Plutella xylostella [3], 30%; with Diaphania hyalinata [4], 5%; with Plutella xylostella [5], 45%; in the assay with Ascia monuste [6], 22.5%. In addition, the mortality with Plutella xylostella [7] amounted to 25%; in the assay on Ascia monuste [8], 27.5%; in the assay with Ascia monuste [9], 25%.

Regarding `CCN(CC)P(=O)(Oc1occc1Cc1cccc(Br)c1)N(CC)CC`, the mortality in the assay on Diaphania hyalinata [1] stood at 25%; in the assay with Diaphania hyalinata [2], 27.5%; in the assay with Plutella xylostella [3], 32.5%; in the assay with Diaphania hyalinata [4], 25%; in the assay on Plutella xylostella [5] it was 47.5%; in the assay on Ascia monuste [6], 2.5%. Also, the figures for the mortality with Plutella xylostella [7], with Ascia monuste [8] and with Ascia monuste [9] were 27.5%, 7.5% and 10%, respectively.

Regarding `CCN(CC)P(=O)(Oc1occc1Cc1ccccc1Cl)N(CC)CC`, the mortality in the assay with Diaphania hyalinata [1] is 10%; in the assay with Diaphania hyalinata [2] it was 10%; with Plutella xylostella [3], 32.5%; with Diaphania hyalinata [4], 10%; in the assay with Plutella xylostella [5], 45%; with Ascia monuste [6], 5%. In addition, the mortality is listed as 20% in the assay with Plutella xylostella [7], 5% in the assay with Ascia monuste [8] and 5% in the assay with Ascia monuste [9].

Consider `CCN(CC)P(=O)(Oc1occc1Cc1cccc(F)c1)N(CC)CC`, for which the mortality in the assay on Diaphania hyalinata [1] is reported as 23.3%; in the assay on Diaphania hyalinata [2], 36.6%; in the assay with Plutella xylostella [3] it was 42.5%; in the assay on Diaphania hyalinata [4] it was 23.3%; in the assay with Plutella xylostella [5] it was 52.5%; with Ascia monuste [6] it was 5%. The mortality stood at 30% in the assay on Plutella xylostella [7], 17.5% in the assay on Ascia monuste [8] and 15% in the assay on Ascia monuste [9].

`CCN(CC)P(=O)(Oc1occc1Cc1ccccc1F)N(CC)CC`: the mortality turned out to be 23.3% in the assay on Diaphania hyalinata [1]; 23.3% in the assay on Diaphania hyalinata [2]; 22.5% with Plutella xylostella [3]; 23.3% in the assay on Diaphania hyalinata [4]; 35% with Plutella xylostella [5]; 22.5% with Ascia monuste [6]. The mortality amounted to 12.5% in the assay on Plutella xylostella [7], 27.5% in the assay with Ascia monuste [8] and 32.5% in the assay on Ascia monuste [9].

`CCN(CC)P(=O)(Oc1occc1Cc1cccc(Cl)c1)N(CC)CC`: the mortality is 12.5% with Diaphania hyalinata [1]; 12.5% in the assay on Diaphania hyalinata [2]; 22.5% in the assay with Plutella xylostella [3]; 12.5% in the assay with Diaphania hyalinata [4]; 37.5% in the assay on Plutella xylostella [5]; 0% in the assay with Ascia monuste [6]. For the same compound, the mortality in the assay on Plutella xylostella [7] was 5%; in the assay on Ascia monuste [8] it was 7.5%; in the assay with Ascia monuste [9], 12.5%.

As for `CCN(CC)P(=O)(Oc1occc1Cc1ccc(Br)cc1)N(CC)CC`, the mortality with Diaphania hyalinata [1] was 27.5%; in the assay with Diaphania hyalinata [2] it was 35%; with Plutella xylostella [3], 20%; in the assay with Diaphania hyalinata [4], 27.5%; in the assay with Plutella xylostella [5], 32.5%; in the assay with Ascia monuste [6], 2.5%. Besides, the mortality in the assay on Plutella xylostella [7] amounted to 7.5%; with Ascia monuste [8] it was 5%; in the assay with Ascia monuste [9], 7.5%.

With `CCN(CC)P(=O)(Oc1occc1Cc1c(C)cccc1Cl)N(CC)CC`, the mortality with Diaphania hyalinata [1] was determined as 20%; with Diaphania hyalinata [2] it was 20%; in the assay on Plutella xylostella [3], 20%; in the assay on Diaphania hyalinata [4], 20%; in the assay on Plutella xylostella [5], 37.5%; with Ascia monuste [6] it was 5%. Moreover, the mortality with Plutella xylostella [7] is reported as 5.3%; with Ascia monuste [8], 15%; in the assay with Ascia monuste [9], 20%.

Consider `O=P(NC1CCCCC1)(NC1CCCCC1)Oc1ccco1`, for which the mortality with Diaphania hyalinata [1] is on record as 2.5%; with Diaphania hyalinata [2], 10%; in the assay on Plutella xylostella [3], 7.5%; with Diaphania hyalinata [4] it was 2.5%; in the assay with Plutella xylostella [5], 12.5%; in the assay with Ascia monuste [6] it was 70%. Moreover, the results for the mortality in the assay on Plutella xylostella [7], with Ascia monuste [8] and in the assay with Ascia monuste [9] were 2.5%, 70% and 70%, respectively.

In the case of `O=P(Oc1ccco1)(N1CCCCC1)N1CCCCC1`, the mortality in the assay on Diaphania hyalinata [1] is 7.5%; in the assay with Diaphania hyalinata [2], 10%; with Plutella xylostella [3], 10%; in the assay with Diaphania hyalinata [4], 7.5%; with Plutella xylostella [5], 20%; in the assay on Ascia monuste [6], 70%. The mortality came to 5% in the assay with Plutella xylostella [7], 75% in the assay with Ascia monuste [8] and 75% with Ascia monuste [9].

For the compound `O=P(Oc1ccco1)(Oc1ccco1)N1CCCCC1`, the mortality in the assay with Diaphania hyalinata [1] was 7.5%; with Diaphania hyalinata [2] it was 17.5%; in the assay on Plutella xylostella [3], 5%; with Diaphania hyalinata [4], 7.5%; in the assay on Plutella xylostella [5], 10%; in the assay with Ascia monuste [6], 87.5%. Moreover, the mortality in the assay with Plutella xylostella [7] is 5%; in the assay on Ascia monuste [8] it was 87.5%; in the assay on Ascia monuste [9] it was 90%.

Regarding `CCN(CC)P(=O)(Oc1ccco1)N(CC)CC`, the mortality with Diaphania hyalinata [1] is 22.5%; in the assay with Diaphania hyalinata [2] it was 25%; in the assay on Plutella xylostella [3], 10%; with Diaphania hyalinata [4], 22.5%; in the assay with Plutella xylostella [5] it was 22.5%; in the assay with Ascia monuste [6], 2.5%. Moreover, the mortality with Plutella xylostella [7] turned out to be 7.5%; in the assay on Ascia monuste [8] it was 10%; in the assay with Ascia monuste [9], 12.5%.

Take `CCN(CC)P(=O)(Oc1ccco1)Oc1ccco1`: the mortality was 55% in the assay with Diaphania hyalinata [1]; 70% in the assay on Diaphania hyalinata [2]; 20% in the assay on Plutella xylostella [3]; 55% in the assay on Diaphania hyalinata [4]; 30% in the assay with Plutella xylostella [5]; 62.5% in the assay with Ascia monuste [6]. Further, the mortality in the assay with Plutella xylostella [7] is 17.5%; in the assay on Ascia monuste [8], 65%; in the assay on Ascia monuste [9], 67.5%.

In the case of `COP(=S)(OC)Oc1nc(Cl)c(Cl)cc1Cl` [CHLORPYRIFOS-METHYL], the mortality in the assay with Diaphania hyalinata [1], with Diaphania hyalinata [2], in the assay with Plutella xylostella [3], with Diaphania hyalinata [4], with Plutella xylostella [5] and with Ascia monuste [6] was 100% throughout. The mortality in the assay with Plutella xylostella [7], in the assay on Ascia monuste [8] and in the assay with Ascia monuste [9] was 100% each time.

Regarding `O=C1C=CCO1` [FURAN-2(5H)-ONE], the mortality in the assay with Diaphania hyalinata [1] is given as 18.9%; in the assay with Diaphania hyalinata [2], 24.3%; in the assay on Plutella xylostella [3], 27.5%; with Diaphania hyalinata [4] it was 18.9%; in the assay on Plutella xylostella [5], 32.5%; in the assay with Ascia monuste [6] it was 12.5%. Also, the figures for the mortality in the assay on Plutella xylostella [7], in the assay with Ascia monuste [8] and with Ascia monuste [9] were 27.5%, 22.5% and 25%, respectively.

As usually defined, the mortality is the share of the test organisms that died.

Values taken from ChEMBL document CHEMBL3045271, “Synthesis and insecticidal activity of new phosphoramidates” (2012).
